Measurements from US5569598A (Lucky Limited Co., priority 1993, dated 1996).
Residues, ends and D or L forms follow the SMILES beside them. *: point of attachment. pNA = O=[N+]([O-])c1ccc(N*)cc1

Columns and labels:
aminopeptidase [1] = assay: Substrate specificity of the aminopeptidase (paranitroanilide substrates); format: biochemical, Streptomyces thermonitrificans; conditions: substrate 10 mM, 1 unit aminopeptidase, 100 mM Tris buffer pH 8.0, 37° C.; activity to leucine-paranitroanilide as 100%
Description: (§1) Enzymol., 19, 514-521(1970).
The substrate specificity of the aminopeptidase was examined as follows. […] The reaction time was regulated in accordance with the substrate so that paranitroanilide is produced in a fixed rate.

aminopeptidase [2] = assay: Effect of orthophenanthroline on the enzyme activity; format: biochemical, Streptomyces thermonitrificans; conditions: 37° C., 1 minute, 0 mM = 100
Description: as §1

[3] = WHO-supplied reference, literature value; cited from earlier work

Row | Compound | Activity(%) of the aminopeptidase according to the substrate (aminopeptidase [1]) [%] | other results
1 | C[C@H](N)C(=O)Nc1ccc([N+](=O)[O-])cc1 [alanine-paranitroanilide] | 0.60 | –
2 | NCC(=O)Nc1ccc([N+](=O)[O-])cc1 [glycine-paranitroanilide] | 0.04 | –
3 | NCC(=O)N[C@@H](Cc1ccccc1)C(=O)Nc1ccc([N+](=O)[O-])cc1 [glycine-phenylalanine-paranitroanilide] (H-Gly-Phe-pNA) | 0.11 | –
4 | NCC(=O)N1CCC[C@H]1C(=O)Nc1ccc([N+](=O)[O-])cc1 [glycine-proline-paranitroanilide] (H-Gly-Pro-pNA) | 0.80 | –
5 | CC(C)C[C@H](N)C(=O)Nc1ccc([N+](=O)[O-])cc1 [leucine-paranitroanilide] | 100 | –
6 | NCCCC[C@H](N)C(=O)Nc1ccc([N+](=O)[O-])cc1 [lysine-paranitroanilide] | 0.03 | –
7 | CSCC[C@H](N)C(=O)Nc1ccc([N+](=O)[O-])cc1 [methionine-paranitroanilide] | 3.60 | –
8 | c1cnc2c(c1)ccc1cccnc12 [orthophenanthroline] | – | Activity(%) (aminopeptidase [2]; orthophenanthroline 1 mM): 27%; Activity(%) (aminopeptidase [2]; orthophenanthroline 5 mM): 2%
9 | pituitary gland-derivedhuman growth hormone: pituitary gland-derived human growth hormone supplied by World Health Organization | – | potency [3]: 2.5 IU/mg
